Test results taken from the supplement of paper PMC12463676, “Small-molecule dissolution of stress granules by redox modulation benefits ALS models” (Nature Chemical Biology, 2025).

Assays:
lipoamide = compound: NC(=O)CCCCC1CCSS1 [lipoamide]; assay: thermal stability z-score vs DMSO; higher = more thermally stabilized by treatment; conditions: HeLa, lipoamide concentration 100 µM
Description: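 Cellular thermal proteome profiling in HeLa cells. Cells were treated with 100 µM lipoamide for 1 h, with or without 1 mM arsenate for a further 1 h, then heated to ten temperatures (37-66.3 °C), and soluble protein was quantified by TMT mass spectrometry relative to 0.1% DMSO controls. The thermal stability score (sum of log2 fold changes minus the abundance score) was transformed to a z-score; mean of n = 3 experiments.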

potassium arsenate = compound: O=[As]([O-])(O)O.[K+] [potassium arsenate]; assay: as above; conditions: HeLa; arsenate concentration 1 mM
Description: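 Cellular thermal proteome profiling in HeLa cells treated with 1 mM arsenate for 1 h (DMSO pretreatment), heated to ten temperatures (37-66.3 °C). Soluble protein was quantified by TMT mass spectrometry relative to DMSO controls; the thermal stability score was transformed to a z-score; mean of n = 3 experiments.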

[1] = arsenate co-treatment: 1 mM arsenate 1 h
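Further: each temperature applied for 3 min, abundance score taken as mean log2 fold change at the two lowest temperatures, z-score obtained by mean subtraction and division by SD.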

ABCE1 (UniProt P61221)
thermal stability z-score (lipoamide; [1]): 0.0869 | thermal stability z-score (lipoamide; arsenate co-treatment: none): 0.0991 | thermal stability z-score (potassium arsenate): -0.471

DPH7 (UniProt Q9BTV6)
thermal stability z-score (lipoamide; [1]): -1.62 | thermal stability z-score (lipoamide; arsenate co-treatment: none): 0.272 | thermal stability z-score (potassium arsenate): 0.093

KIAA0930 (UniProt Q6ICG6)
Chain of UniProt Q6ICG6 (Q6ICG6 whole entry): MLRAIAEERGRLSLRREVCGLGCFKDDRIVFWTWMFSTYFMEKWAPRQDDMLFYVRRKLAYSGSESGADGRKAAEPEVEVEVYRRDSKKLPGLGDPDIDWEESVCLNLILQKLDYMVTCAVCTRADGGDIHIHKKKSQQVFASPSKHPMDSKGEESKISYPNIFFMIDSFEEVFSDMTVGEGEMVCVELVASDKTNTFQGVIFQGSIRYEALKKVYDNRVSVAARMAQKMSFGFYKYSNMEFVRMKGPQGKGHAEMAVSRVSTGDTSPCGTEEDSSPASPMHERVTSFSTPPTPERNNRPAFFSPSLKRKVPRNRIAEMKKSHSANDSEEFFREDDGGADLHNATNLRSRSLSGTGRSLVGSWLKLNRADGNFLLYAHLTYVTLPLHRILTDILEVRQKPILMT
thermal stability z-score (lipoamide; [1]): 0.193 | thermal stability z-score (lipoamide; arsenate co-treatment: none): 0.227 | thermal stability z-score (potassium arsenate): 0.706

UTRN (UniProt P46939)
thermal stability z-score (lipoamide; [1]): 0.452 | thermal stability z-score (lipoamide; arsenate co-treatment: none): -0.0132 | thermal stability z-score (potassium arsenate): -0.495

LCMT2 (UniProt O60294)
thermal stability z-score (lipoamide; [1]): -0.107 | thermal stability z-score (lipoamide; arsenate co-treatment: none): -0.78 | thermal stability z-score (potassium arsenate): -0.332

TOX4 (UniProt O94842)
thermal stability z-score (lipoamide; [1]): -0.0663 | thermal stability z-score (lipoamide; arsenate co-treatment: none): -0.0734 | thermal stability z-score (potassium arsenate): -0.108

CEP290 (UniProt O15078)
thermal stability z-score (lipoamide; [1]): 0.613 | thermal stability z-score (lipoamide; arsenate co-treatment: none): 0.238 | thermal stability z-score (potassium arsenate): 0.0798

TNK1 (UniProt Q13470)
thermal stability z-score (lipoamide; [1]): 0.0556 | thermal stability z-score (lipoamide; arsenate co-treatment: none): 0.223 | thermal stability z-score (potassium arsenate): -0.0895

SERPINB6 (UniProt P35237)
Chain of UniProt P35237 (P35237 whole entry): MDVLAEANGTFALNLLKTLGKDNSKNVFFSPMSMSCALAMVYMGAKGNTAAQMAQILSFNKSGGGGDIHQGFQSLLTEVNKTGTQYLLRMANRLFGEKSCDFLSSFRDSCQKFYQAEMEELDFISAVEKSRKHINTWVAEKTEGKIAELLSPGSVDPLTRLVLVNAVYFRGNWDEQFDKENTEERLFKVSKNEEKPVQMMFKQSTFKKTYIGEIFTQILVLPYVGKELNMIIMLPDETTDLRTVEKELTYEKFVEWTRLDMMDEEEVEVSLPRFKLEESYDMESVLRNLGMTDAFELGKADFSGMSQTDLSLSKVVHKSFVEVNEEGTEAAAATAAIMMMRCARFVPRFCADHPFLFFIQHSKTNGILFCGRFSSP
thermal stability z-score (lipoamide; [1]): -0.206 | thermal stability z-score (lipoamide; arsenate co-treatment: none): -0.157 | thermal stability z-score (potassium arsenate): -1.01

PDS5B (UniProt Q9NTI5)
thermal stability z-score (lipoamide; [1]): 0.839 | thermal stability z-score (lipoamide; arsenate co-treatment: none): 0.426 | thermal stability z-score (potassium arsenate): -0.362

TRIM38 (UniProt O00635)
thermal stability z-score (lipoamide; [1]): -0.0725 | thermal stability z-score (lipoamide; arsenate co-treatment: none): -0.0917 | thermal stability z-score (potassium arsenate): -0.447

CHURC1 (UniProt Q8WUH1)
thermal stability z-score (lipoamide; [1]): -0.539 | thermal stability z-score (lipoamide; arsenate co-treatment: none): -0.988 | thermal stability z-score (potassium arsenate): -0.122

RPP25L (UniProt Q8N5L8)
thermal stability z-score (lipoamide; [1]): 0.36 | thermal stability z-score (lipoamide; arsenate co-treatment: none): 0.117 | thermal stability z-score (potassium arsenate): 0.245

C2ORF49 (UniProt Q9BVC5)
thermal stability z-score (lipoamide; [1]): 0.426 | thermal stability z-score (lipoamide; arsenate co-treatment: none): 0.229 | thermal stability z-score (potassium arsenate): 0.0813

FAM120A (UniProt Q9NZB2)
thermal stability z-score (lipoamide; [1]): -0.00535 | thermal stability z-score (lipoamide; arsenate co-treatment: none): -0.0221 | thermal stability z-score (potassium arsenate): 0.686

MKI67 (UniProt P46013)
thermal stability z-score (lipoamide; [1]): 1.7 | thermal stability z-score (lipoamide; arsenate co-treatment: none): 1.37 | thermal stability z-score (potassium arsenate): 0.155

TOM1L2 (UniProt Q6ZVM7)
Chain of UniProt Q6ZVM7 (Q6ZVM7 whole entry): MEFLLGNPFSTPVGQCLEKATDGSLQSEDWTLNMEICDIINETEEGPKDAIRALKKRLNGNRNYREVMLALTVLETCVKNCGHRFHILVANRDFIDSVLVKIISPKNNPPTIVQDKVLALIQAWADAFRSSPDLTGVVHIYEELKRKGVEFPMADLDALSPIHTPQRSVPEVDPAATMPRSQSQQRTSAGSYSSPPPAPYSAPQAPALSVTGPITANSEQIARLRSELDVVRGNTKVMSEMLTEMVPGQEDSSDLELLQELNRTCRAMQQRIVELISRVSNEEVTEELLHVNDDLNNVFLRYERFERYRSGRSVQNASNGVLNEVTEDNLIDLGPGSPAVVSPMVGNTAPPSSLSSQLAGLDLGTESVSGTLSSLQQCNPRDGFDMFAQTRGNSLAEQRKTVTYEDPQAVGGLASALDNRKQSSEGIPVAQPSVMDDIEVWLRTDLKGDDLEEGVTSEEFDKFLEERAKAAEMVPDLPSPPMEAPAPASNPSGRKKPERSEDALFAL
thermal stability z-score (lipoamide; [1]): -0.00565 | thermal stability z-score (lipoamide; arsenate co-treatment: none): -0.0362 | thermal stability z-score (potassium arsenate): 0.0525

NCAPD3 (UniProt P42695)
Chain of UniProt P42695 (P42695 whole entry): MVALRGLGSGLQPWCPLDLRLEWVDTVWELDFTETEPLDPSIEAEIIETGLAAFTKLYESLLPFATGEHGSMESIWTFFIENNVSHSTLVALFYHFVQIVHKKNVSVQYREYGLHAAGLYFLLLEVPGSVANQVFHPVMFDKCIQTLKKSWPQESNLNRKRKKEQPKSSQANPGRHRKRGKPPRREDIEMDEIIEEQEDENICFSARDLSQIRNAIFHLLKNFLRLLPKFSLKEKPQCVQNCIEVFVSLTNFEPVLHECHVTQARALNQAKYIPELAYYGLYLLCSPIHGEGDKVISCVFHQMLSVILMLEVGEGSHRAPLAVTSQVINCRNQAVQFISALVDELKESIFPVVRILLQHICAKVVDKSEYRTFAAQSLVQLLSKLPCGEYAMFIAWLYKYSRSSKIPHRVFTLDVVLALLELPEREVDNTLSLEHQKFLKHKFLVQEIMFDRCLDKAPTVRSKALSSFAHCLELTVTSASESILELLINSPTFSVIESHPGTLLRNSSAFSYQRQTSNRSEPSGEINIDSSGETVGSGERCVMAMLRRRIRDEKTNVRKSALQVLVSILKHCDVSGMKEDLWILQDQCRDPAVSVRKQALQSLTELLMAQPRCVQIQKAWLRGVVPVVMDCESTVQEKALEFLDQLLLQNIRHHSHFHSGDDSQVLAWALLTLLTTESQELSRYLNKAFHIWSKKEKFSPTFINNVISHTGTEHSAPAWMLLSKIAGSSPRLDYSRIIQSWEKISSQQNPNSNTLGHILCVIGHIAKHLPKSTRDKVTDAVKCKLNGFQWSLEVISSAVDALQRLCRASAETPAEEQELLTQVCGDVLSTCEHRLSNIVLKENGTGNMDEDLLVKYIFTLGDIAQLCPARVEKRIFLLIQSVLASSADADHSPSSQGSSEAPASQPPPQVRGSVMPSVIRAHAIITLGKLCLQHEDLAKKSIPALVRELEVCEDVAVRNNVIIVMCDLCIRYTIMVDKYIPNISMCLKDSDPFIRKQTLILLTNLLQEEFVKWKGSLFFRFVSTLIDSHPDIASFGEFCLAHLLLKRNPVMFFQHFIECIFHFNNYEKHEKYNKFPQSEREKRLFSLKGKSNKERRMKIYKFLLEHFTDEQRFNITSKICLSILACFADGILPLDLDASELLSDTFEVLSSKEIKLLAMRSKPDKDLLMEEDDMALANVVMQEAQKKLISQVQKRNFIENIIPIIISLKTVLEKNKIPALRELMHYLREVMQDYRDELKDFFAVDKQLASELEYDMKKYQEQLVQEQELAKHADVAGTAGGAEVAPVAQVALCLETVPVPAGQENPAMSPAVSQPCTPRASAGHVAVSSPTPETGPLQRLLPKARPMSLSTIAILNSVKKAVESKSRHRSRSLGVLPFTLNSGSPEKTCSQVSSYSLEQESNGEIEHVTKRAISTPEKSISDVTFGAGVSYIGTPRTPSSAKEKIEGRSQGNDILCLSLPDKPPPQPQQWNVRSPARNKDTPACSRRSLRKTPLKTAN
thermal stability z-score (lipoamide; [1]): 0.394 | thermal stability z-score (lipoamide; arsenate co-treatment: none): 0.105 | thermal stability z-score (potassium arsenate): 0.161

VAMP7 (UniProt P51809)
Chain of UniProt P51809 (P51809 whole entry): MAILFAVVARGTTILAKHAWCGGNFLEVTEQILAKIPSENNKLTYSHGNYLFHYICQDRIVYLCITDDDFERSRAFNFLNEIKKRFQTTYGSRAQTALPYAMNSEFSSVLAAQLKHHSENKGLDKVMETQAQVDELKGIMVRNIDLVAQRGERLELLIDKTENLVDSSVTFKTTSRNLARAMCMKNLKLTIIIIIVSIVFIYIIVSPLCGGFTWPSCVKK
thermal stability z-score (lipoamide; [1]): -0.512 | thermal stability z-score (lipoamide; arsenate co-treatment: none): -0.444 | thermal stability z-score (potassium arsenate): -0.234

THUMPD3 (UniProt Q9BV44)
Chain of UniProt Q9BV44 (Q9BV44 whole entry): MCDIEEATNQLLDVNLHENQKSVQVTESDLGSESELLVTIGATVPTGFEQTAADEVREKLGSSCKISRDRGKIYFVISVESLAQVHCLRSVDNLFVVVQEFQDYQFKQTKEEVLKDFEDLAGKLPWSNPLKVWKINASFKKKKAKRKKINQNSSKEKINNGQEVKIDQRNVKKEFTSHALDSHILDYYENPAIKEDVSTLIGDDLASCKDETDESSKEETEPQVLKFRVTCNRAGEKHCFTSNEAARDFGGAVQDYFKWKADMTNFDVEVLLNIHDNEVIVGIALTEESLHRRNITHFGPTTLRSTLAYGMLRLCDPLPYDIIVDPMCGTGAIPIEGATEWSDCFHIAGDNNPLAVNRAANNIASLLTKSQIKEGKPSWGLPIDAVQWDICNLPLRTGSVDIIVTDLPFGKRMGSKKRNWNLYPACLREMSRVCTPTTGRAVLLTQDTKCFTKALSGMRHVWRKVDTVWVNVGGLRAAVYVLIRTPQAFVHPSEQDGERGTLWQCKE
thermal stability z-score (lipoamide; [1]): 0.0954 | thermal stability z-score (lipoamide; arsenate co-treatment: none): -0.489 | thermal stability z-score (potassium arsenate): 0.37

TTYH3 (UniProt Q9C0H2)
Chain of UniProt Q9C0H2 (Q9C0H2 whole entry): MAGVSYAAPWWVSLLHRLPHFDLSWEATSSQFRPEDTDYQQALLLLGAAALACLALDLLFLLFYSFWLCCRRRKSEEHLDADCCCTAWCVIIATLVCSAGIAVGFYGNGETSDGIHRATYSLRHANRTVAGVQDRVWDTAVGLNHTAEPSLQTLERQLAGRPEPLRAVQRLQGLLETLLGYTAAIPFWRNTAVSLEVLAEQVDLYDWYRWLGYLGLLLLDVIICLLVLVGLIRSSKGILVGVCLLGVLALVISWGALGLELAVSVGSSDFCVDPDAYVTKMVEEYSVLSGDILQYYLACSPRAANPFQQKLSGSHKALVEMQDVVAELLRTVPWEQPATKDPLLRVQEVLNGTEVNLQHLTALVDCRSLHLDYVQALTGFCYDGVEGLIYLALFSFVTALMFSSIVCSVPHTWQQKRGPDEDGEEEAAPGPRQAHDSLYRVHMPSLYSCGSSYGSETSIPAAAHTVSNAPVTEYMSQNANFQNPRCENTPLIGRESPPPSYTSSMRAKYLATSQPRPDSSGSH
thermal stability z-score (lipoamide; [1]): 0.027 | thermal stability z-score (lipoamide; arsenate co-treatment: none): 0.0475 | thermal stability z-score (potassium arsenate): -0.648

DLG3 (UniProt Q92796)
thermal stability z-score (lipoamide; [1]): -0.116 | thermal stability z-score (lipoamide; arsenate co-treatment: none): 0.02 | thermal stability z-score (potassium arsenate): -0.395

SNW1 (UniProt Q13573)
thermal stability z-score (lipoamide; [1]): -0.497 | thermal stability z-score (lipoamide; arsenate co-treatment: none): -0.726 | thermal stability z-score (potassium arsenate): -0.395

CD3EAP (UniProt O15446)
thermal stability z-score (lipoamide; [1]): 0.354 | thermal stability z-score (lipoamide; arsenate co-treatment: none): -0.286 | thermal stability z-score (potassium arsenate): -3.13

RABIF (UniProt P47224)
thermal stability z-score (lipoamide; [1]): 0.243 | thermal stability z-score (lipoamide; arsenate co-treatment: none): 0.233 | thermal stability z-score (potassium arsenate): -0.572

CFDP1 (UniProt Q9UEE9)
thermal stability z-score (lipoamide; [1]): 0.254 | thermal stability z-score (lipoamide; arsenate co-treatment: none): 0.185 | thermal stability z-score (potassium arsenate): -0.21

UAP1 (UniProt Q16222)
thermal stability z-score (lipoamide; [1]): 0.373 | thermal stability z-score (lipoamide; arsenate co-treatment: none): 0.0722 | thermal stability z-score (potassium arsenate): -0.553

CEP131 (UniProt Q9UPN4)
thermal stability z-score (lipoamide; [1]): -0.287 | thermal stability z-score (lipoamide; arsenate co-treatment: none): -0.195 | thermal stability z-score (potassium arsenate): 0.215

MRPS25 (UniProt P82663)
thermal stability z-score (lipoamide; [1]): 0.0295 | thermal stability z-score (lipoamide; arsenate co-treatment: none): 0.0583 | thermal stability z-score (potassium arsenate): 0.445

USF1 (UniProt P22415)
thermal stability z-score (lipoamide; [1]): 0.0459 | thermal stability z-score (lipoamide; arsenate co-treatment: none): -0.169 | thermal stability z-score (potassium arsenate): 0.149

HEATR5A (UniProt Q86XA9)
thermal stability z-score (lipoamide; [1]): -0.931 | thermal stability z-score (lipoamide; arsenate co-treatment: none): 0.157 | thermal stability z-score (potassium arsenate): 0.782

LIMA1 (UniProt Q9UHB6)
thermal stability z-score (lipoamide; [1]): -0.552 | thermal stability z-score (lipoamide; arsenate co-treatment: none): -0.44 | thermal stability z-score (potassium arsenate): -1

EIF3G (UniProt O75821)
Chain of UniProt O75821 (O75821 whole entry): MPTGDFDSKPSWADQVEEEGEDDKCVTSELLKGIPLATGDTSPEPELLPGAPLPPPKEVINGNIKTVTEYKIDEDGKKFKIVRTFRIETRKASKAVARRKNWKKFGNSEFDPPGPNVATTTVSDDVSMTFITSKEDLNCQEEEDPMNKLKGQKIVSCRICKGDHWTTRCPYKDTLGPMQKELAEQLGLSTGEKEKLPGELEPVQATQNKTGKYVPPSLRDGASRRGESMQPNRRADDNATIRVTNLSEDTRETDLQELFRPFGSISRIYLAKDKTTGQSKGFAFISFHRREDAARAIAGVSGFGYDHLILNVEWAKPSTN
thermal stability z-score (lipoamide; [1]): 0.0353 | thermal stability z-score (lipoamide; arsenate co-treatment: none): -0.0823 | thermal stability z-score (potassium arsenate): 0.711

SAP130 (UniProt Q9H0E3)
thermal stability z-score (lipoamide; [1]): -0.208 | thermal stability z-score (lipoamide; arsenate co-treatment: none): -0.267 | thermal stability z-score (potassium arsenate): -0.246

SEC23A (UniProt Q15436)
thermal stability z-score (lipoamide; [1]): -0.106 | thermal stability z-score (lipoamide; arsenate co-treatment: none): 0.228 | thermal stability z-score (potassium arsenate): -0.0157

KAT8 (UniProt Q9H7Z6)
thermal stability z-score (lipoamide; [1]): 0.773 | thermal stability z-score (lipoamide; arsenate co-treatment: none): -0.409 | thermal stability z-score (potassium arsenate): -0.509

ABHD16A (UniProt O95870)
thermal stability z-score (lipoamide; [1]): -0.193 | thermal stability z-score (lipoamide; arsenate co-treatment: none): -0.0821 | thermal stability z-score (potassium arsenate): 1.11

CAD (UniProt P27708)
thermal stability z-score (lipoamide; [1]): -0.284 | thermal stability z-score (lipoamide; arsenate co-treatment: none): -1.08 | thermal stability z-score (potassium arsenate): -0.201

MCAT (UniProt Q8IVS2)
thermal stability z-score (lipoamide; [1]): 0.313 | thermal stability z-score (lipoamide; arsenate co-treatment: none): 0.162 | thermal stability z-score (potassium arsenate): 1.17

TRMT1L (UniProt Q7Z2T5)
thermal stability z-score (lipoamide; [1]): 0.385 | thermal stability z-score (lipoamide; arsenate co-treatment: none): 0.0926 | thermal stability z-score (potassium arsenate): -1.26

DBR1 (UniProt Q9UK59)
thermal stability z-score (lipoamide; [1]): 0.0885 | thermal stability z-score (lipoamide; arsenate co-treatment: none): -0.174 | thermal stability z-score (potassium arsenate): 0.5

PALM (UniProt O75781)
thermal stability z-score (lipoamide; [1]): -0.195 | thermal stability z-score (lipoamide; arsenate co-treatment: none): -0.143 | thermal stability z-score (potassium arsenate): -0.681

NDUFS6 (UniProt O75380)
thermal stability z-score (lipoamide; [1]): -0.253 | thermal stability z-score (lipoamide; arsenate co-treatment: none): 0.123 | thermal stability z-score (potassium arsenate): -0.244

HERC1 (UniProt Q15751)
thermal stability z-score (lipoamide; [1]): -0.83 | thermal stability z-score (lipoamide; arsenate co-treatment: none): -0.54 | thermal stability z-score (potassium arsenate): -0.0795

HIST1H4A (UniProt P62805)
thermal stability z-score (lipoamide; [1]): 0.954 | thermal stability z-score (lipoamide; arsenate co-treatment: none): 0.814 | thermal stability z-score (potassium arsenate): 2.61

POMGNT1 (UniProt Q8WZA1)
thermal stability z-score (lipoamide; [1]): -0.429 | thermal stability z-score (lipoamide; arsenate co-treatment: none): 0.0715 | thermal stability z-score (potassium arsenate): -0.0541

PSMB1 (UniProt P20618)
Chain of UniProt P20618 (P20618 whole entry): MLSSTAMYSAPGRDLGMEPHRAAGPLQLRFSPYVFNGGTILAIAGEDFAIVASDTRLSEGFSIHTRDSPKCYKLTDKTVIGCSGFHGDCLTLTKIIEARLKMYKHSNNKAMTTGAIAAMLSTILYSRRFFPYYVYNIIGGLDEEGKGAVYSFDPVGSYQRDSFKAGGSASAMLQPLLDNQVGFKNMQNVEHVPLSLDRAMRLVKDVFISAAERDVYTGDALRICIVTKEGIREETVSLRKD
thermal stability z-score (lipoamide; [1]): 1 | thermal stability z-score (lipoamide; arsenate co-treatment: none): 0.743 | thermal stability z-score (potassium arsenate): 0.497

CYP20A1 (UniProt Q6UW02)
thermal stability z-score (lipoamide; [1]): 0.107 | thermal stability z-score (lipoamide; arsenate co-treatment: none): 0.633 | thermal stability z-score (potassium arsenate): 0.0905

NTMT1 (UniProt Q9BV86)
thermal stability z-score (lipoamide; [1]): -0.319 | thermal stability z-score (lipoamide; arsenate co-treatment: none): -0.204 | thermal stability z-score (potassium arsenate): -0.137

ZFAND5 (UniProt O76080)
thermal stability z-score (lipoamide; [1]): 1.13 | thermal stability z-score (lipoamide; arsenate co-treatment: none): 0.84 | thermal stability z-score (potassium arsenate): 0.118

ZDHHC5 (UniProt Q9C0B5)
thermal stability z-score (lipoamide; [1]): -0.762 | thermal stability z-score (lipoamide; arsenate co-treatment: none): 0.0706 | thermal stability z-score (potassium arsenate): -0.438

EAPP (UniProt Q56P03)
Chain of UniProt Q56P03 (Q56P03 whole entry): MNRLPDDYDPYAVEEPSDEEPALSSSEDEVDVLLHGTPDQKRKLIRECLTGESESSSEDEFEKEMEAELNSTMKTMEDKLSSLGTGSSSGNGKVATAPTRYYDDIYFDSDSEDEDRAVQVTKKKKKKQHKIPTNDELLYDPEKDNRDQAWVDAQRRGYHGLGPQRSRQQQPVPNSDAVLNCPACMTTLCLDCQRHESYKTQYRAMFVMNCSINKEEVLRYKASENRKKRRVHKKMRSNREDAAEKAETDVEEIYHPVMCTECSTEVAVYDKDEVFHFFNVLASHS
thermal stability z-score (lipoamide; [1]): 0.767 | thermal stability z-score (lipoamide; arsenate co-treatment: none): 0.459 | thermal stability z-score (potassium arsenate): -0.167

CDK16 (UniProt Q00536)
thermal stability z-score (lipoamide; [1]): 0.0459 | thermal stability z-score (lipoamide; arsenate co-treatment: none): -0.3 | thermal stability z-score (potassium arsenate): 0.0532

TSPAN4 (UniProt O14817)
thermal stability z-score (lipoamide; [1]): -0.0469 | thermal stability z-score (lipoamide; arsenate co-treatment: none): 0.15 | thermal stability z-score (potassium arsenate): 0.304

FGD4 (UniProt Q96M96)
thermal stability z-score (lipoamide; [1]): 0.0849 | thermal stability z-score (lipoamide; arsenate co-treatment: none): -0.0145 | thermal stability z-score (potassium arsenate): -0.203
